Among the test systems are SK-OV-3 ovarian; UACC-257 melanoma; RPMI-8226 leukemia; SK-MEL-28 melanoma; SF-268 CNS; OVCAR-3 ovarian; MALME-3M melanoma; LOX IMVI melanoma; SN12C renal; MDA-MB-231 breast.
Holding throughout (assay): NCI anticancer screen, dose series, 48 h

Each structure is given as a SMILES string.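 48-hour exposure; five concentrations; linearly interpolated endpoints. The concentration for full growth arrest is given as TGI.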

In the case of `CC(C)C1OC(=O)/C=C/C=C/C=C/C=C/C=C/CC(O)C(C)C(O)CC(O)CC(O)CC(O)CC(O)CC(O)CC(O)/C=C/C1C` (stereo not given), the TGI in the experiment on SK-OV-3 ovarian, in the experiment on UACC-257 melanoma, in the experiment on RPMI-8226 leukemia, with SK-MEL-28 melanoma, in the experiment on SF-268 CNS and in the experiment on OVCAR-3 ovarian was greater than 100 µM in each case. The compound further registered a TGI in the experiment on MALME-3M melanoma greater than 100 µM.

On to `COC(OC)C1OC(CO)C(n2cc(F)c(=O)[nH]c2=O)C1O` (stereo not given), for which the TGI in the experiment on SK-OV-3 ovarian, in the experiment with UACC-257 melanoma, in the experiment with RPMI-8226 leukemia, with LOX IMVI melanoma, with SN12C renal and in the experiment on SK-MEL-28 melanoma was greater than 100 µM each time. The TGI in the experiment on MDA-MB-231 breast, in the experiment on SF-268 CNS and with OVCAR-3 ovarian was greater than 100 µM throughout.

For `C1=CC(=[N+]2N=C(c3ccccc3)CC2c2ccccc2)C=CC1=C1SC(c2ccccc2)(c2ccccc2)c2ccccc21` (stereo not given), the TGI in the experiment on SK-OV-3 ovarian, with SN12C renal, in the experiment on SK-MEL-28 melanoma, in the experiment on MDA-MB-231 breast, in the experiment on SF-268 CNS and in the experiment with OVCAR-3 ovarian was greater than 100 µM throughout. The compound further had a TGI in the experiment on MALME-3M melanoma greater than 100 µM.

In the case of `CCOC(=O)C(=O)NCCCN1CCOCC1`, the TGI in the experiment on SK-OV-3 ovarian, with UACC-257 melanoma, in the experiment on LOX IMVI melanoma, in the experiment on SN12C renal, with SK-MEL-28 melanoma and in the experiment with SF-268 CNS was greater than 100 µM in each case. Also, the TGI with OVCAR-3 ovarian and in the experiment with MALME-3M melanoma was greater than 100 µM each time.

`O=C1CC2(CCC(O)(c3cccs3)C(C(=O)c3cccs3)C2)C(=O)c2ccccc2N1` (stereo not given): the TGI in the experiment on SK-OV-3 ovarian, with UACC-257 melanoma, with LOX IMVI melanoma, in the experiment on SN12C renal, in the experiment on MDA-MB-231 breast and in the experiment with SF-268 CNS was greater than 100 µM in each case. The TGI with OVCAR-3 ovarian and in the experiment on MALME-3M melanoma was greater than 100 µM in each case.

In the case of `Cc1cnoc1NS(=O)(=O)c1ccc(Nc2nnc(/C=C/c3c(O)ccc4ccccc34)c(=O)n2N)cc1`, the TGI with SK-OV-3 ovarian was greater than 100 µM; in the experiment with RPMI-8226 leukemia, 71.6 µM; with LOX IMVI melanoma, 53.9 µM; in the experiment with SN12C renal it was 95.3 µM; with SF-268 CNS, greater than 100 µM; with OVCAR-3 ovarian, 60.1 µM. In the experiment with MALME-3M melanoma, this compound showed a TGI of 65.5 µM.

For `NC(=S)N1N=C(c2ccccc2O)CC1c1ccccc1` (stereo not given), the TGI worked out at 49.8 µM in the experiment on SK-OV-3 ovarian; 39.1 µM with UACC-257 melanoma; 39.3 µM with RPMI-8226 leukemia; 46.2 µM in the experiment on LOX IMVI melanoma; 45.3 µM with SN12C renal; 58.5 µM in the experiment with SK-MEL-28 melanoma. The TGI in the experiment with SF-268 CNS turned out to be 80.6 µM; with OVCAR-3 ovarian, 31.2 µM; in the experiment on MALME-3M melanoma, 42.3 µM.

For the compound `COc1ccc(C(=O)N(C(=O)N2CCN(c3ccccc3)CC2)S(=O)(=O)c2ccccc2)cc1`, the TGI is greater than 100 µM in the experiment with SK-OV-3 ovarian; greater than 100 µM in the experiment on UACC-257 melanoma; 38 µM in the experiment with LOX IMVI melanoma; 55.9 µM in the experiment with SN12C renal; greater than 100 µM in the experiment on SK-MEL-28 melanoma; 81.9 µM with MDA-MB-231 breast. Further, the TGI was greater than 100 µM in the experiment with SF-268 CNS, greater than 100 µM in the experiment on OVCAR-3 ovarian and 93.4 µM in the experiment on MALME-3M melanoma.

As for `COc1ccc(C2c3cc4c(cc3OC(O)(CO)C2C(=O)O)OCO4)cc1` (stereo not given) (tested in a mixture with another compound), the TGI in the experiment with SK-OV-3 ovarian amounted to 98.5 µM; with UACC-257 melanoma, 50.8 µM; in the experiment with RPMI-8226 leukemia, 49.5 µM; with LOX IMVI melanoma it was 30.1 µM; in the experiment with SN12C renal it was 54.1 µM; in the experiment on SK-MEL-28 melanoma, 43.8 µM. Further, the TGI with SF-268 CNS worked out at 94.3 µM; in the experiment on OVCAR-3 ovarian, 54.4 µM; with MALME-3M melanoma, 75.9 µM.

`CC(=O)Oc1ccc(CO)cc1OC(C)=O`: the TGI in the experiment on SK-OV-3 ovarian, in the experiment with UACC-257 melanoma, in the experiment with RPMI-8226 leukemia, in the experiment with LOX IMVI melanoma, in the experiment with SN12C renal and with SK-MEL-28 melanoma was greater than 100 µM each time. The TGI in the experiment with SF-268 CNS, in the experiment on OVCAR-3 ovarian and in the experiment on MALME-3M melanoma was greater than 100 µM in each case.

As to `Cc1ccccc1NC(=O)CC(=O)N1N=C(N2c3ccccc3Sc3ccccc32)CC1c1ccccc1` (stereo not given), the TGI with SK-OV-3 ovarian, with UACC-257 melanoma, in the experiment on RPMI-8226 leukemia, in the experiment on LOX IMVI melanoma, with SN12C renal and in the experiment on SK-MEL-28 melanoma was greater than 100 µM each time. The TGI in the experiment on SF-268 CNS, in the experiment with OVCAR-3 ovarian and with MALME-3M melanoma was greater than 100 µM throughout.

With `COc1cc([C@@H]2c3cc4c(cc3[C@@H](c3c(O)cc(O)c5c3O[C@H](c3ccc(O)c(O)c3)[C@H](OC(=O)c3cc(O)c(O)c(O)c3)C5)[C@H]3COC(=O)[C@H]23)OCO4)cc(OC)c1OC`, the TGI in the experiment with SK-OV-3 ovarian, in the experiment with UACC-257 melanoma, in the experiment on RPMI-8226 leukemia, in the experiment with LOX IMVI melanoma, with SN12C renal and with SK-MEL-28 melanoma was greater than 100 µM in each case. Also, the TGI with MDA-MB-231 breast is greater than 100 µM; with SF-268 CNS, greater than 100 µM; in the experiment on OVCAR-3 ovarian, greater than 21.9 µM.

The values are drawn from PubChem BioAssay (NCI).
